The results in this text go back to patent US20240226058A1, “STABILIZED CANNABINOID COMPOSITIONS AND METHODS OF PREPARATION THEREOF” (priority 2020, published 2024).

A short description of series [1]: Heat-accelerated (~37° C.) THC stability with aqueous-phase vitamin C and/or EDTA. The class given is physicochemical. Conditions: for THC loss compared to control: vitamin C or EDTA individually, actual hop water base (FIG. 9).
Series [2] is described as follows: THC content in infused hop water stored at room temperature. The class given is physicochemical. Conditions: for protection of cannabinoid API against oxidative damage: infused beverage, tocopherols emulsified with cannabis oil, ascorbic acid about 0.5-1 mM in aqueous base.
Series [3] is described as follows: THC loss in RO water at pH 3.6 vs. neutral pH. Conditions: 20 mg THC/355 mL, citric acid to pH 3.6 (FIG. 4). The class given is physicochemical. As to the method: FIG. 4 is a graph showing an experiment ruling out pH as a driving factor behind THC loss. Dosed RO water to 20 mg THC/355 mL and used citric acid to pH down to 3.6 (which is the pH of the Infused hop water products) vs. neutral pH (had to bring H2O pH up a bit using sodium carbonate). No difference was observed.

Series [4] is described as follows: In-house comparison of oxidation rates of emulsified cannabinoids.
Series [5] in a line: Cannabinoid stability in cold-brewed coffee with tocopherol-containing emulsions. The class given is physicochemical. The conditions noted are these: cold-brewed coffee base (FIG. 5). The text has this: FIG. 5 is a graph showing quantified THC content when alpha-tocopherol (Vitamin E, VE) was incorporated into our emulsion alongside THC. Alpha-tocopherol (Vitamin E, VE) was incorporated into the emulsion alongside THC.
FIG. 6 is a graph showing cannabinoid stability testing on a cold-brewed coffee product (20× concentrated base and final product) using two different emulsions containing tocopherols (QNE=our in-house Q-naturale+VitE emulsion; NGAO=Nanogen's (a 3rd party emulsion provider) antioxidant formulation).

The nature of series [6]: Color and flavor stability of infused hop water at 37° C. incubation. The class given is physicochemical.

As to `O=C(O)CN(CCN(CC(=O)O)CC(=O)O)CC(=O)O` [EDTA, ethylenediaminetetraacetic acid], in series [1], the “THC loss compared to control” value is on record as “able to mitigate THC loss compared to control, but did not fully prevent it”.
Consider `CCCCCc1cc(O)c2c(c1)OC(C)(C)c1ccc(C)cc1-2` [CBN, cannabinol], for which the “Maximal CBN levels observed” value in series [2] (room temperature infused hop water samples (FIG. 2)) is “about 20 % of the original THC content”.
For the molecule `CCCCCc1cc(O)c2c(c1)OC(C)(C)[C@@H]1CCC(C)=C[C@@H]21` [THC, Δ^9-tetrahydrocannabinol, reference compound], the “THC loss, pH 3.6 vs neutral pH” value in series [3] is “No difference”. The “rate of oxidation compared to CBD” value in series [4] is on record as “drastically faster rates of oxidation”. Further, in series [2] (infused hop water beverages, room temperature, no antioxidants added, linear (FIG. 1)), the “rate of THC loss” value was “roughly −0.35 % THC per day”. In series [1] (aerated samples, shaken with air exposure (FIG. 8)), the “rate of THC loss in high dissolved oxygen (DO) samples” value is “fastest rate of THC loss”. Also, the “rate of THC loss with intentional increase in DO levels” value in series [1] (heat-accelerated, three emulsion formulations (FIG. 10)) is listed as “faster rates of loss”.
With `Cc1c(C)c2c(c(C)c1O)CC[C@@](C)(CCC[C@H](C)CCC[C@H](C)CCCC(C)C)O2` [Alpha-tocopherol, alpha-tocopherol], the “THC content, emulsion formulated with vs without Vitamin E” value in series [5] is given as “no appreciable difference”.
For the molecule `O=C1O[C@H]([C@@H](O)CO)C(O)=C1O` [vitamin C, ascorbic acid], the “color and flavor alterations in the beverage product” value in series [6] (heat-accelerated, 30 days @ ~37° C.) is “strongly protected against unfavorable color and flavor alterations”. Moreover, the “formation of off-colors and flavors” value in series [6] (infused hop water, 3 weeks at 37° C., EDTA 25 ppm, vitamin C 176 ppm) was “largely prevent formation of off-colors and flavors”. Also, the “protection of cannabinoid API against oxidative damage” value in series [2] is “ample protection”. For the same molecule, the “THC loss compared to tocopherol-only preparations” value in series [2] (room temperature, after roughly five months) is “negligible amounts of THC loss”. The “antioxidant efficacy between concentrations” value in series [1] (0.5-10 mM vitamin C, infused hop water, 4 weeks heat-accelerated (~9 months at RT) (FIG. 11)) is reported as “little difference”. Further, the “protection to THC” value in series [1] (30 days @ ~37° C., equivalent to ~10 months at room temperature) is listed as “sufficient protection”. The “THC (cannabinoid) loss” value in series [1] (Vitamin C 176 ppm=1 mM and/or EDTA 25 ppm in aqueous phase, hop terpene-infused base (FIG. 7)) is “slowed rates of cannabinoid loss”. Also, in series [1] (infused hop water products (FIG. 11)), the “concentration of vitamin C concluded sufficient” value was determined as 500 µM. Also, the “THC loss compared to control” value in series [1] is given as “able to mitigate THC loss compared to control, but did not fully prevent it”.
Tocopherols: the “protection of cannabinoid API against oxidative damage” value in series [2] was “not found to suitably mitigate oxidative damage by itself”.
